Test results reported in PMC7613998, “Development of selective inhibitors of phosphatidylinositol 3-kinase C2α” (Nature Chemical Biology, 2022).

Columns and labels:
Assay in all cases: biochemical
Parameters in all cases: SelectScreen LanthaScreen kinase binding assay, per cent tracer displacement, mean of two points
Conditions in all cases: tracer displacement
ULK2 = target: T1, ULK2 (Homo sapiens, UniProt Q8IYT8)
T1 sequence (Q8IYT8 1-1036): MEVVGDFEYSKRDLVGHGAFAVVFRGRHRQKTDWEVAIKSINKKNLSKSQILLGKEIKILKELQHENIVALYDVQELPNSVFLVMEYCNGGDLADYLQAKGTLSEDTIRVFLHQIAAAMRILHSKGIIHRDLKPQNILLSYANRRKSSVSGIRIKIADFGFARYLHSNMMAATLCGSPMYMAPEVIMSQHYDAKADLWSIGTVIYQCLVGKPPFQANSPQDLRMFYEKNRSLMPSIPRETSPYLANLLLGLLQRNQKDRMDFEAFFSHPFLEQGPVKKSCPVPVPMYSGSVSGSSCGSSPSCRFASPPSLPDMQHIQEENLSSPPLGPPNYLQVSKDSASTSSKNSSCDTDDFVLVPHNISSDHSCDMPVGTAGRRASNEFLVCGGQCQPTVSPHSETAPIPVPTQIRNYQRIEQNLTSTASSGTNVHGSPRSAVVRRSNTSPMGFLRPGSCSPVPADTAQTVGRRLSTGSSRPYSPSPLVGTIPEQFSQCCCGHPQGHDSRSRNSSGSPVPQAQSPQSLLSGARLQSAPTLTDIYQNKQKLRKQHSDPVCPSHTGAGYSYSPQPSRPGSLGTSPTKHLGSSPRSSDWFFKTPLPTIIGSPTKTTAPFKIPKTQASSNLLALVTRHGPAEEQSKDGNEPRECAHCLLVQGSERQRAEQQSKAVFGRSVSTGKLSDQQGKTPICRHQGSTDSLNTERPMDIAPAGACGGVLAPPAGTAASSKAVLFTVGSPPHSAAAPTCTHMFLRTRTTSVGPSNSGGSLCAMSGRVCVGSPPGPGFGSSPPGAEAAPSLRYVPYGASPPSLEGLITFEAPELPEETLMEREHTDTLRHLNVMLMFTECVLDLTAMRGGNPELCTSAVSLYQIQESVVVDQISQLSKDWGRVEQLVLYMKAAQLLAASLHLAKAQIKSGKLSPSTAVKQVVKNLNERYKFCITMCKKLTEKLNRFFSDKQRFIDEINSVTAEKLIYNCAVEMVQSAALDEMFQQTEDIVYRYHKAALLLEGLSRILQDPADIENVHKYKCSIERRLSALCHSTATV

BMPR2 = target: T2, BMPR2 (Homo sapiens, UniProt Q13873)
T2 sequence (Q13873 1-1038): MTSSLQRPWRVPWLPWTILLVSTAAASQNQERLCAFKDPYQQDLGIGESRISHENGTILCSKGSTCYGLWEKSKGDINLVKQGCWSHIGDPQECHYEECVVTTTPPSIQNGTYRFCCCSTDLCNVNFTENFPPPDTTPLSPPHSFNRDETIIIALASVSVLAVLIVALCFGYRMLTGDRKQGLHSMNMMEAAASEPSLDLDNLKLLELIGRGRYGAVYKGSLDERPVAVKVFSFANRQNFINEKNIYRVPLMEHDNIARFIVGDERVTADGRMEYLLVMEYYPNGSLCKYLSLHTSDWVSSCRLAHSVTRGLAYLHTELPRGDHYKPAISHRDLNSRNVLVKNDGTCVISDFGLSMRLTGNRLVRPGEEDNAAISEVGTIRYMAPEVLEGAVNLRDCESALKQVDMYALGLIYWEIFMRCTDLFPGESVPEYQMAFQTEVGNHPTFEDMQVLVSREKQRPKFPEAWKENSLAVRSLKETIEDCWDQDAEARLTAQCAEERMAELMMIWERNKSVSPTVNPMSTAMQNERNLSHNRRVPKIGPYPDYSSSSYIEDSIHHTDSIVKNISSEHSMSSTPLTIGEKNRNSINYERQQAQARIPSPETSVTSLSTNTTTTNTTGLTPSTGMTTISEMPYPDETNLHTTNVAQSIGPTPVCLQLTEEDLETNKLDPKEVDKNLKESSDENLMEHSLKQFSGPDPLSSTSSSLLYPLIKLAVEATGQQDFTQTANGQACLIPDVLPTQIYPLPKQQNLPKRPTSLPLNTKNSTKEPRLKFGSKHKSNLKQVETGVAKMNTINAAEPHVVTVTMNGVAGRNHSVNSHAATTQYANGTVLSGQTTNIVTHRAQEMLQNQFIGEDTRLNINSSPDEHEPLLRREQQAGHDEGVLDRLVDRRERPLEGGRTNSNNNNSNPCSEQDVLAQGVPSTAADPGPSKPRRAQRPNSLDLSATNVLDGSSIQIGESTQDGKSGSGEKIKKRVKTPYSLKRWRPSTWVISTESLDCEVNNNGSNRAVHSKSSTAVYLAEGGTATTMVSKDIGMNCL

TGFBR1 (ALK5) = target: T3, TGFBR1 (ALK5) (Homo sapiens, UniProt P36897)
T3 sequence (P36897 1-503): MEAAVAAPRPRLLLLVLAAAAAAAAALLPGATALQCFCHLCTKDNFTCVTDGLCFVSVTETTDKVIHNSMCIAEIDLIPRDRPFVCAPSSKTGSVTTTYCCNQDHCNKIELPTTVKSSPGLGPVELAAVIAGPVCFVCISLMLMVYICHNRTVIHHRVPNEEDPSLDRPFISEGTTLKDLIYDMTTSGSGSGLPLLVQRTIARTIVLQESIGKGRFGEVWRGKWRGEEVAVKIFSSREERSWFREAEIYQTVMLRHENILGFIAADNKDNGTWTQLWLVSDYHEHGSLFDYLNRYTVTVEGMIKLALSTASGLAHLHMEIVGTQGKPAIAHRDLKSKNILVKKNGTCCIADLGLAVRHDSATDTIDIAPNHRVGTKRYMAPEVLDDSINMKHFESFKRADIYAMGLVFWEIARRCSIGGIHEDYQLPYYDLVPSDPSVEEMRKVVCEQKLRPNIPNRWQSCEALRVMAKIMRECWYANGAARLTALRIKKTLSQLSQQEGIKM

WNK1 = WNK1 (Homo sapiens, UniProt Q9H4A3)
ADCK3 = target: T4, ADCK3 (Homo sapiens, UniProt Q8NI60)
T4 construct: gene COQ8A
T4 sequence (Q8NI60 whole entry): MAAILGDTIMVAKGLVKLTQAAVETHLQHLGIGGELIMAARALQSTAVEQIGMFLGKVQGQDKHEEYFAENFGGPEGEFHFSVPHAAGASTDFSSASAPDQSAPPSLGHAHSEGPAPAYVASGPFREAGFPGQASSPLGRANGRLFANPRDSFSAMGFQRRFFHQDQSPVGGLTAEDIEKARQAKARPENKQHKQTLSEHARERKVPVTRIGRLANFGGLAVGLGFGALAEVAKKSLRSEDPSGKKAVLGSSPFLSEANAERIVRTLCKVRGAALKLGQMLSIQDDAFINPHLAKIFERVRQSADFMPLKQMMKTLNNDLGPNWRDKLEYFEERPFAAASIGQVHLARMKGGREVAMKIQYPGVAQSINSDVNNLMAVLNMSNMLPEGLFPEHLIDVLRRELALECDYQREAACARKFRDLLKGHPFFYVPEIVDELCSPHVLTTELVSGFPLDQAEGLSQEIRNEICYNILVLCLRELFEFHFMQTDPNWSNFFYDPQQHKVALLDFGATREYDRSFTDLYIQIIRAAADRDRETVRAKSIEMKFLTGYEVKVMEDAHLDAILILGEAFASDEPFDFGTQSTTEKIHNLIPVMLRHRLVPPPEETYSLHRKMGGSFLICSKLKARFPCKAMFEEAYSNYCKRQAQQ

WNK1, sequence (Q9H4A3 whole entry): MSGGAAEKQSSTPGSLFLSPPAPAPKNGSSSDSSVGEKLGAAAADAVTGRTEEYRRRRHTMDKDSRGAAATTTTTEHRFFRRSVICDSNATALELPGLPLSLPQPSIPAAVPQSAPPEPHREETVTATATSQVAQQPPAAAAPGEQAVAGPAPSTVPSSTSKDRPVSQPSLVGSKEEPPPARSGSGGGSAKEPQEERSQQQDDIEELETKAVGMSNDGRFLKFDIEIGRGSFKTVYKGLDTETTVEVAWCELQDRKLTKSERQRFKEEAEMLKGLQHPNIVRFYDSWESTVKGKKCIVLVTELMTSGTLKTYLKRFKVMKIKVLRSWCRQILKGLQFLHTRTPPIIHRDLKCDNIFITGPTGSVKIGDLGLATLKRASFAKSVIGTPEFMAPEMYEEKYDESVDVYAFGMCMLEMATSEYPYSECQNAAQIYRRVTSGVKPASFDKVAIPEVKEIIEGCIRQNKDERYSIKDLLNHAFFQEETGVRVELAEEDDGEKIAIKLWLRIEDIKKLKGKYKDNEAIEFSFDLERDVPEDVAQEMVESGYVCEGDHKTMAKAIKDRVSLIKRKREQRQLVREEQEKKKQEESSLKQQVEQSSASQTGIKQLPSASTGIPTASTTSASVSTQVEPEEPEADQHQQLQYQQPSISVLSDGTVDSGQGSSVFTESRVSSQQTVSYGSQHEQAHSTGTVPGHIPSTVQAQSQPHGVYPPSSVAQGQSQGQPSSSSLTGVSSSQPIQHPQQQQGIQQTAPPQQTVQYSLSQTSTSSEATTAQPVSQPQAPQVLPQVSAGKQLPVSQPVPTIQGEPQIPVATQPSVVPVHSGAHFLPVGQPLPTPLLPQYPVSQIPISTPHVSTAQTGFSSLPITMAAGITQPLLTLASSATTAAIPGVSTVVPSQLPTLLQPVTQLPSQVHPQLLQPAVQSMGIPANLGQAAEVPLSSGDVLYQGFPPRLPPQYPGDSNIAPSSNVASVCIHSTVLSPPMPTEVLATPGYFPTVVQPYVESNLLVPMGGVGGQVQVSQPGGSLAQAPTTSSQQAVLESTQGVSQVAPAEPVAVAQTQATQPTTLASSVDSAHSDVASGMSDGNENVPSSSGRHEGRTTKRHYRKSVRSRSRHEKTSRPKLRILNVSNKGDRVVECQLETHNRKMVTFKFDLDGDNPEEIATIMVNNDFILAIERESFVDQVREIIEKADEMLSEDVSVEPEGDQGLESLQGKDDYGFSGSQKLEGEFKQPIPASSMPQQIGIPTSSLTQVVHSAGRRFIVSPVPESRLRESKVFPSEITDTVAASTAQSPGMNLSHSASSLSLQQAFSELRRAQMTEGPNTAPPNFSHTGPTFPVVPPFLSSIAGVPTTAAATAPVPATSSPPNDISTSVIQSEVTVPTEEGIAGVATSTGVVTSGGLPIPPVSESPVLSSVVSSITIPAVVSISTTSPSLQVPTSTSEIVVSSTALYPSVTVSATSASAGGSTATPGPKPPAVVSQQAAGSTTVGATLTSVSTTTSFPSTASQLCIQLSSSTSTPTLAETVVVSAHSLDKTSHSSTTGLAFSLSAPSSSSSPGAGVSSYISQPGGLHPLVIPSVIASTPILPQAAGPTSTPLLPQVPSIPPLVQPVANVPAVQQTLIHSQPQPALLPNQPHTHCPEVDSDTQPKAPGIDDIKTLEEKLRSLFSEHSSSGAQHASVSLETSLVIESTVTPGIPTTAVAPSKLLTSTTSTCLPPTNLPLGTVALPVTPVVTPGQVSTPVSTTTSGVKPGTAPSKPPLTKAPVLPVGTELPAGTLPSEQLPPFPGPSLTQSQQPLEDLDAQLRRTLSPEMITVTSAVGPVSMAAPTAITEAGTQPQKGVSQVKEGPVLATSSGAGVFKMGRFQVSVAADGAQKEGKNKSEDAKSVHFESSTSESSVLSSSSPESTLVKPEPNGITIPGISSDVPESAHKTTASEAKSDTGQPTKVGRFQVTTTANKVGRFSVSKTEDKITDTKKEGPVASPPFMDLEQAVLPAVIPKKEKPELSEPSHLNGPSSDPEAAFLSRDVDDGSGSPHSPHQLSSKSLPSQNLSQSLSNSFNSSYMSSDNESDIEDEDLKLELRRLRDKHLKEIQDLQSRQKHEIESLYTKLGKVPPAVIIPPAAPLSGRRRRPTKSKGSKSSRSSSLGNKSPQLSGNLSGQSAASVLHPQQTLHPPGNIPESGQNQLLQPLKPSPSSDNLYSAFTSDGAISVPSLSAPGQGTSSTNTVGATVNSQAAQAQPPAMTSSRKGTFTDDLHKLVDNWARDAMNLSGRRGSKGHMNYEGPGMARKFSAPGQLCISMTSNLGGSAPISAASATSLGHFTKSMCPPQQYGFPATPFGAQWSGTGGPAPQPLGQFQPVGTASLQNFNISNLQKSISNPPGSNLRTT

inhibition at 1 µM (ULK2) [%] | inhibition at 3 µM (ULK2) [%] | inhibition at 10 µM (ULK2) [%] | inhibition at 1 µM (BMPR2) [%] | inhibition at 3 µM (BMPR2) [%] | inhibition at 10 µM (BMPR2) [%] | inhibition at 1 µM (TGFBR1 (ALK5)) [%] | inhibition at 3 µM (TGFBR1 (ALK5)) [%] | inhibition at 10 µM (TGFBR1 (ALK5)) [%] | inhibition at 1 µM (WNK1) [%] | inhibition at 3 µM (WNK1) [%] | inhibition at 10 µM (WNK1) [%] | inhibition at 1 µM (ADCK3) [%] | inhibition at 3 µM (ADCK3) [%] | inhibition at 10 µM (ADCK3) [%] | Compound
-4.11 | -4.09 | -1.99 | -1.13 | 0.974 | 3.06 | -5.43 | 9.69 | 5.12 | -6.21 | -5.06 | -3.46 | -3.76 | 8.79 | 13.7 | O=C(CSc1nc2nccnc2c(=O)n1CCc1ccccc1)Nc1nccs1 [compound 1, PITCOIN1]
-2.32 | -0.489 | 2.18 | 11.6 | 13.1 | 17.3 | -4.81 | 14.1 | 1.48 | -2.33 | -3.62 | 0.594 | 8.78 | 18.3 | 9.67 | CS(=O)(=O)Nc1cccc(-c2csc(NC(=O)CSc3nc4nccnc4c(=O)n3CCc3ccccc3)n2)c1 [compound 3, PITCOIN3]
